This passage reports GI50 and TGI results from PubChem BioAssay (NCI).

“And” between values parts separate entries of the source, which are not always exact repeats. Equal entries are not always repeated.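 The compound was tested at five concentrations on cells cultured in 96-well plates, with a 48-hour exposure period. At the GI50, growth is halved. At the TGI there is no net growth.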 Where a SMILES comes first, the peptide text is derived from it. [ ]: non-standard residue; d: D form. The star is where a group is joined. ξ: configuration not given here. NMeN = CN[C@@H](CC(N)=O)C(=O)O; NMeV = CN[C@H](C(=O)O)C(C)C; ξNMeV = CNC(C(=O)O)C(C)C; Boc = CC(C)(C)OC(=O)*; ξNMeA = CNC(C)C(=O)O

Some test systems named below: EKVX NSCLC; HCC-2998 colon; KM12 colon; NCI-H460 lung; OVCAR-8 ovarian; PC-3 prostate; SK-MEL-2 melanoma; SNB-19 CNS; UACC-257 melanoma; UO-31 renal.
What all share (assay): DTP human tumour cell line panel, 48 h

In the case of `O=P([O-])(O)OP(=O)([O-])O.[NH-][C@@H]1CCCC[C@H]1[NH-].[Pt+4]`, the GI50 – broadly, the concentration giving 50% growth inhibition – in the assay with EKVX NSCLC was more than 100 µM; in the assay on HCC-2998 colon, 81 µM and 10.6 µM; with KM12 colon, 50.8 µM and 24 µM; in the assay on NCI-H460 lung, 4.4 µM and 2.33 µM; with OVCAR-8 ovarian, 14.1 µM and 2.42 µM; in the assay with PC-3 prostate, > 100 µM and 20.3 µM. For the same molecule, the GI50 in the assay on SK-MEL-2 melanoma was more than 53.2 µM; with SNB-19 CNS it was 47.9 µM and 14.9 µM; in the assay on UACC-257 melanoma it was 70.6 µM and 7.93 µM; in the assay on UO-31 renal, 32.2 µM and 4.83 µM. Besides, the TGI (as a rule, the concentration at which net growth stops) is more than 100 µM in the assay on EKVX NSCLC; > 100 µM and 64.5 µM in the assay on HCC-2998 colon; more than 100 µM with KM12 colon; > 100 µM and 19.5 µM in the assay with NCI-H460 lung; more than 100 µM with OVCAR-8 ovarian; more than 100 µM in the assay with PC-3 prostate. For the same molecule, the TGI was more than 100 µM in the assay with SK-MEL-2 melanoma; more than 100 µM with SNB-19 CNS; more than 100 µM with UACC-257 melanoma; > 100 µM and 30.5 µM in the assay with UO-31 renal.

On to `C=C1C(=O)[C@@]23CC1C(O)[C@@H](OC(C)=O)[C@@H]2C1(C)C(OC(C)=O)C[C@@H](OC(C)=O)C(C)(C)[C@@H]1C[C@H]3OC(C)=O` (some centres not stated), for which the GI50 with EKVX NSCLC is > 10 µM and 16.8 µg/mL; in the assay with HCC-2998 colon, 17.3 µg/mL; in the assay on KM12 colon it was > 10 µM and 5.94 µg/mL; with NCI-H460 lung, > 10 µM and 7.27 µg/mL; with OVCAR-8 ovarian, 3.37 µM and 3.94 µg/mL; in the assay with PC-3 prostate, 10.6 µg/mL. Also, the GI50 was > 10 µM and 2.46 µg/mL in the assay on SK-MEL-2 melanoma; > 10 µM and 17.2 µg/mL in the assay with SNB-19 CNS; 3.55 µM and 2.25 µg/mL in the assay on UACC-257 melanoma; > 10 µM and 6.65 µg/mL in the assay on UO-31 renal. In addition, the TGI in the assay on EKVX NSCLC is > 10 µM and 35.6 µg/mL; with HCC-2998 colon, > 10 µM and 31.3 µg/mL; in the assay with KM12 colon, > 10 µM and 17.1 µg/mL; in the assay with NCI-H460 lung, > 10 µM and 19.4 µg/mL; in the assay on OVCAR-8 ovarian, > 10 µM and 20.1 µg/mL; in the assay with PC-3 prostate it was > 10 µM and 22.4 µg/mL. Further, the TGI in the assay with SK-MEL-2 melanoma was > 10 µM and 5.65 µg/mL; with SNB-19 CNS it was > 10 µM and 31.1 µg/mL; in the assay with UACC-257 melanoma it was > 10 µM and 5.06 µg/mL; in the assay on UO-31 renal, > 10 µM and 16.3 µg/mL.

`NC(=O)c1ccc2c(-c3ccnc(NCCCO)n3)c(-c3ccc(F)cc3)nn2c1`: the GI50 in the assay on EKVX NSCLC, in the assay on HCC-2998 colon, in the assay with KM12 colon, in the assay with NCI-H460 lung, with OVCAR-8 ovarian and in the assay on PC-3 prostate was more than 25 µM each time. For the same molecule, the GI50 was more than 25 µM in the assay with SK-MEL-2 melanoma, more than 25 µM in the assay with SNB-19 CNS, more than 25 µM in the assay with UACC-257 melanoma and 5.9 µM in the assay with UO-31 renal. For the same molecule, the TGI in the assay with EKVX NSCLC, in the assay with HCC-2998 colon, in the assay with KM12 colon, with NCI-H460 lung, in the assay with OVCAR-8 ovarian and in the assay on PC-3 prostate was more than 25 µM throughout. The TGI in the assay on SK-MEL-2 melanoma, with SNB-19 CNS, in the assay with UACC-257 melanoma and with UO-31 renal was more than 25 µM in each case.

Consider `COC(=O)C(C)N(C)C(=O)[C@H](CC(N)=O)N(C)C(=O)[C@@H]1CCCN1C(=O)[C@H](C(C)C)N(C)C(=O)C(C(C)C)N(C)C(=O)[C@@H](NC(=O)OC(C)(C)C)C(C)C` (some centres not stated) (Boc-V[ξNMeV][NMeV]P[NMeN][ξNMeA]-OMe), for which the GI50 with EKVX NSCLC was 16.9 µM; in the assay with HCC-2998 colon, more than 100 µM; with NCI-H460 lung, 17.9 µM; in the assay on SK-MEL-2 melanoma, more than 100 µM; in the assay with SNB-19 CNS it was more than 100 µM; in the assay with UACC-257 melanoma, more than 100 µM. For the same molecule, in the assay with UO-31 renal, the GI50 was more than 100 µM. In addition, the TGI in the assay with EKVX NSCLC was > 50 µM and 35.3 µM; in the assay with HCC-2998 colon, more than 100 µM; with KM12 colon, more than 100 µM; in the assay on NCI-H460 lung it was > 50 µM and 32.7 µM; in the assay with OVCAR-8 ovarian, more than 100 µM; with PC-3 prostate, 50 µM. For the same molecule, the TGI in the assay with SK-MEL-2 melanoma was more than 100 µM; in the assay with SNB-19 CNS, more than 100 µM; with UACC-257 melanoma, more than 100 µM; in the assay on UO-31 renal, 50 µM and > 100 µM.

In the case of `COC(=O)c1c2c(c(C)[n+]([O-])c1C)C(=O)C=C(NCc1ccc(OC)cc1)C2=O`, the GI50 in the assay with EKVX NSCLC is 1.92 µM; with HCC-2998 colon, 1.54 µM; with KM12 colon, 1.67 µM; in the assay with NCI-H460 lung, 1.29 µM; with OVCAR-8 ovarian, 1.11 µM; in the assay on PC-3 prostate, 1.02 µM. Also, the GI50 in the assay with SK-MEL-2 melanoma is 2.14 µM; in the assay with SNB-19 CNS, 2.12 µM; in the assay on UACC-257 melanoma, 0.758 µM; in the assay on UO-31 renal it was 2.2 µM. The TGI in the assay with EKVX NSCLC amounted to 5.24 µM; with HCC-2998 colon it was 4.78 µM; with KM12 colon, 6.63 µM; in the assay on NCI-H460 lung, 4.69 µM; in the assay with OVCAR-8 ovarian, 4.48 µM; in the assay on PC-3 prostate, 6.55 µM. Further, the TGI turned out to be 6.64 µM in the assay on SK-MEL-2 melanoma, 5.58 µM in the assay on SNB-19 CNS, 2.08 µM with UACC-257 melanoma and 6.83 µM with UO-31 renal.

`O=C(CC12CC3CC(CC(C3)C1)C2)NCCOCCOCCOCCNC(=O)c1cc2c(o1)C(=O)c1ccccc1C2=O`: the GI50 with EKVX NSCLC was 2.23 µM; in the assay on HCC-2998 colon it was 1.89 µM; in the assay with KM12 colon, 2.87 µM; in the assay on NCI-H460 lung, 0.398 µM; in the assay on OVCAR-8 ovarian it was 1.15 µM; in the assay on PC-3 prostate it was 1.79 µM. Also, the GI50 in the assay on SK-MEL-2 melanoma was 1.64 µM; in the assay with SNB-19 CNS it was 1.32 µM; in the assay on UACC-257 melanoma it was 1.22 µM; with UO-31 renal it was 1.51 µM. Also, the TGI came out at 5.29 µM in the assay on EKVX NSCLC; 3.6 µM in the assay with HCC-2998 colon; 10.3 µM in the assay on KM12 colon; 1.44 µM in the assay on NCI-H460 lung; 10.6 µM in the assay on OVCAR-8 ovarian; 16.1 µM in the assay with PC-3 prostate. For the same molecule, the TGI with SK-MEL-2 melanoma is 3.93 µM; in the assay on SNB-19 CNS, 7.63 µM; in the assay on UACC-257 melanoma, 2.52 µM; with UO-31 renal, 3.13 µM.

Take `CC1=C2C[C@H]3[C@@H](CC=C4C[C@@H](O)CC[C@@]43C)[C@@H]2CC[C@]12O[C@@H]1C[C@H](C)CN[C@H]1[C@H]2C`: the GI50 in the assay on EKVX NSCLC is 51.9 µM; in the assay on HCC-2998 colon, 16.9 µM and 21.6 µM; with KM12 colon, 41.3 µM and 23.4 µM; in the assay with NCI-H460 lung, 21.8 µM and 19.9 µM; in the assay on OVCAR-8 ovarian, 11.6 µM and 20.2 µM; in the assay with PC-3 prostate, 22.1 µM and 20.2 µM. Also, the GI50 with SK-MEL-2 melanoma is 12.3 µM and 23.4 µM; in the assay on SNB-19 CNS, 22.6 µM and 20.7 µM; with UACC-257 melanoma, 20.3 µM and 17.3 µM; in the assay on UO-31 renal it was 11.5 µM and 19 µM. Besides, the TGI with EKVX NSCLC was more than 100 µM; in the assay on HCC-2998 colon it was 50 µM and 39.4 µM; in the assay with KM12 colon, 50 µM and 54.7 µM; with NCI-H460 lung, 50 µM and 44.4 µM; with OVCAR-8 ovarian, 50 µM and 48.5 µM; in the assay on PC-3 prostate, 50 µM and 59.6 µM. Further, the TGI in the assay with SK-MEL-2 melanoma was 38.4 µM and 51.6 µM; with SNB-19 CNS it was 50 µM and 52.6 µM; with UACC-257 melanoma it was 50 µM and 33.1 µM; with UO-31 renal it was 35.9 µM and 37.2 µM.
